Test results reported in ChEMBL document CHEMBL1132484, “New alpha-substituted succinate-based hydroxamic acids as TNFalpha convertase inhibitors” (J Med Chem, 1999).
pIC50: −log10 of the molar value.

Tests used:
[1] = biological target: T1, Disintegrin and metalloproteinase domain-containing protein 17 (Homo sapiens, UniProt P78536); test: Inhibition of TNF(tumor necrosis factor) in human blood; format: functional
[2] = biological target: T1, Disintegrin and metalloproteinase domain-containing protein 17; test: Inhibitory activity against Tumor necrosis factor alpha-converting enzyme (TACE) in blood.; format: tissue-based

T1 sequence (P78536 whole entry, the tested form may be a part): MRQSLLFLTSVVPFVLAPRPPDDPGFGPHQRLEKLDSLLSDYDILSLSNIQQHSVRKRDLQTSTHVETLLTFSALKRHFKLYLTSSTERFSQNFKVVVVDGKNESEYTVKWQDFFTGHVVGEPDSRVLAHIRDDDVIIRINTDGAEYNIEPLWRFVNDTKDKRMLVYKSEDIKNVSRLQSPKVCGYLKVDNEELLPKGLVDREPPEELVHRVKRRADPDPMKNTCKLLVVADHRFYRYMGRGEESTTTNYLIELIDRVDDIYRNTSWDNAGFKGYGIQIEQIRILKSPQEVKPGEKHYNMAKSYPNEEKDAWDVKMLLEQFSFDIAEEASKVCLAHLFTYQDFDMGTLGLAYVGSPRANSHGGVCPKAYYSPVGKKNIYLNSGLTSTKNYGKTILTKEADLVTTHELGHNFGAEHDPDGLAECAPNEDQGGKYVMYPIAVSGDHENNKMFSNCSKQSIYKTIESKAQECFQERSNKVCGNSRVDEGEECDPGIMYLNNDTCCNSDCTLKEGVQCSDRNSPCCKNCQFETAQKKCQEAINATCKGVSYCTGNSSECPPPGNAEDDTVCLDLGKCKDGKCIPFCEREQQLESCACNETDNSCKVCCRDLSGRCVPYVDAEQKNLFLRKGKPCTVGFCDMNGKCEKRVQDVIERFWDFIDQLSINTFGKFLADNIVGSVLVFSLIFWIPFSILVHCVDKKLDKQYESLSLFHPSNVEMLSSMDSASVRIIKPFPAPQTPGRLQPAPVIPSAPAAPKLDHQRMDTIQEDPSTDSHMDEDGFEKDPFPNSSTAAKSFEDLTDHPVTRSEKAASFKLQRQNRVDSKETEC

Structure (SMILES)	pIC50 [1]	pIC50 [2]
CNC(=O)[C@H](Cc1ccccc1)NC(=O)[C@H](CC(C)C)[C@H](CSc1ccccc1)C(=O)NO	5.28	8.74
CNC(=O)[C@@H](NC(=O)[C@H](CC(C)C)[C@H](NCc1ccc2ccccc2c1)C(=O)NO)C(C)(C)C	5.17	9.24
CNC(=O)[C@@H](NC(=O)[C@H](CC(C)C)[C@H](NS(=O)(=O)c1c(C(C)C)cc(C(C)C)cc1C(C)C)C(=O)NO)C(C)(C)C	–	7.89
CNC(=O)[C@@H](NC(=O)[C@H](CC(C)C)[C@H](NC(=O)c1cccnc1)C(=O)NO)C(C)(C)C	–	7.66
CNC(=O)[C@@H](NC(=O)[C@H](CC(C)C)[C@H](OCc1cc2ccccc2n(C)c1=O)C(=O)NO)C(C)(C)C	5.63	9.36
CCCN([C@H](C(=O)NO)[C@@H](CC(C)C)C(=O)N[C@H](C(=O)NC)C(C)(C)C)S(=O)(=O)c1cccc2cccnc12	–	8.00
CNC(=O)[C@@H](NC(=O)[C@H](CC(C)C)[C@H](NC(=O)c1ccc2ccccc2c1)C(=O)NO)C(C)(C)C	< 4.70	8.48
CNC(=O)[C@@H](NC(=O)[C@H](CC(C)C)[C@H](OCc1cccc2cccnc12)C(=O)NO)C(C)(C)C	5.09	9.40
CNC(=O)[C@@H](NC(=O)[C@H](CC(C)C)[C@H](NS(=O)(=O)c1ccc2c(c1)CC(=O)N2)C(=O)NO)C(C)(C)C	5.82	8.55
CNC(=O)[C@@H](NC(=O)[C@H](CC(C)C)[C@H](OCc1ccc2nc(C)nc(O)c2c1)C(=O)NO)C(C)(C)C	5.62	9.37
CNC(=O)[C@@H](NC(=O)[C@H](CC(C)C)[C@H](NC(=O)c1ccc2ncccc2c1)C(=O)NO)C(C)(C)C	–	8.02
CNC(=O)[C@@H](NC(=O)[C@H](CC(C)C)[C@H](NS(=O)(=O)c1ccc2ccccc2c1)C(=O)NO)C(C)(C)C	5.92	9.18
CNC(=O)[C@@H](NC(=O)[C@H](CC(C)C)[C@H](NS(=O)(=O)/C=C/c1ccccc1)C(=O)NO)C(C)(C)C	6.11	9.27
CNC(=O)[C@@H](NC(=O)[C@H](CC(C)C)[C@H](Sc1cc(Cl)cc(Cl)c1)C(=O)NO)C(C)(C)C	5.31	9.38
CNC(=O)[C@@H](NC(=O)[C@H](CC(C)C)[C@H](NS(=O)(=O)CCc1ccncc1)C(=O)NO)C(C)(C)C	6.15	8.89
CNC(=O)[C@@H](NC(=O)[C@H](CC(C)C)[C@@H](C(=O)NO)N1CCCC1)C(C)(C)C	5.21	8.55
CNC(=O)[C@@H](NC(=O)[C@H](CC(C)C)[C@H](NS(=O)(=O)c1cccc2ccccc12)C(=O)NO)C(C)(C)C	5.51	8.92
CNC(=O)[C@@H](NC(=O)[C@H](CC(C)C)[C@@H](Sc1ccccc1)C(=O)NO)C(C)(C)C	–	9.00
CNC(=O)[C@@H](NC(=O)[C@H](CC(C)C)[C@H](Sc1ccccc1)C(=O)NO)C(C)(C)C	–	6.73
CNC(=O)[C@@H](NC(=O)[C@H](CC(C)C)[C@H](NS(=O)(=O)c1ccc(C(=O)O)cc1)C(=O)NO)C(C)(C)C	5.36	8.49
CCS[C@H](C(=O)NO)[C@@H](CC(C)C)C(=O)N[C@H](C(=O)NC)C(C)(C)C	5.25	8.82
CNC(=O)[C@@H](NC(=O)[C@H](CC(C)C)[C@H](NS(=O)(=O)c1cccnc1)C(=O)NO)C(C)(C)C	5.42	8.68
CNC(=O)[C@@H](NC(=O)[C@H](CC(C)C)[C@H](SC)C(=O)NO)C(C)(C)C	5.64	8.80
CNC(=O)[C@@H](NC(=O)[C@H](CC(C)C)[C@H](Sc1ccc2c(c1)CCC(=O)N2C)C(=O)NO)C(C)(C)C	5.18	8.85

Structure (SMILES)	pIC50 [1]	pIC50 [2]
CNC(=O)[C@@H](NC(=O)[C@H](CC(C)C)[C@H](OCc1ccc2oc(=O)ccc2c1)C(=O)NO)C(C)(C)C	5.44	9.10
CNC(=O)[C@@H](NC(=O)[C@H](CC(C)C)[C@H](NS(C)(=O)=O)C(=O)NO)C(C)(C)C	5.80	8.66
CNC(=O)[C@@H](NC(=O)[C@H](CC(C)C)[C@H](Sc1ccc(OC)c(OC)c1)C(=O)NO)C(C)(C)C	–	8.92
CNC(=O)[C@@H](NC(=O)[C@H](CC(C)C)[C@H](OCCc1ccc2sc(C)nc2c1)C(=O)NO)C(C)(C)C	5.46	9.68
CNC(=O)[C@@H](NC(=O)[C@H](CC(C)C)[C@H](NS(=O)(=O)c1cccc2c(=O)[nH]cnc12)C(=O)NO)C(C)(C)C	5.31	8.47
CNC(=O)[C@@H](NC(=O)[C@H](CC(C)C)[C@H](OCc1cccc2ccccc12)C(=O)NO)C(C)(C)C	5.12	9.48
CNC(=O)[C@@H](NC(=O)[C@H](CC(C)C)[C@H](OCc1cccc2nccnc12)C(=O)NO)C(C)(C)C	5.12	8.96
CNC(=O)[C@@H](NC(=O)[C@H](CC(C)C)[C@H](Sc1ccc(C#N)cc1)C(=O)NO)C(C)(C)C	5.48	9.20
CNC(=O)[C@@H](NC(=O)[C@H](CC(C)C)[C@H](NS(=O)(=O)c1ccc2c(c1)CCC(=O)N2C)C(=O)NO)C(C)(C)C	5.52	8.54
CNC(=O)[C@@H](NC(=O)[C@H](CC(C)C)[C@H](OCc1ccc2ccccc2c1)C(=O)NO)C(C)(C)C	5.14	9.22
CNC(=O)[C@@H](NC(=O)[C@H](CC(C)C)[C@H](Sc1cccc(C(C)(C)C#N)c1)C(=O)NO)C(C)(C)C	5.55	8.80
CNC(=O)[C@@H](NC(=O)[C@H](CC(C)C)[C@H](OC)C(=O)NO)C(C)(C)C	5.30	8.82
CNC(=O)[C@@H](NC(=O)[C@H](CC(C)C)[C@H](NCCCSC)C(=O)NO)C(C)(C)C	5.34	8.89
CNC(=O)[C@@H](NC(=O)[C@H](CC(C)C)[C@H](Sc1ccc(S(C)(=O)=O)cc1)C(=O)NO)C(C)(C)C	5.68	8.90
CNC(=O)[C@@H](NC(=O)[C@H](CC(C)C)[C@H](NCc1ccc2ccccc2n1)C(=O)NO)C(C)(C)C	5.24	9.00
CNC(=O)[C@@H](NC(=O)[C@H](CC(C)C)[C@H](NS(=O)(=O)c1cccs1)C(=O)NO)C(C)(C)C	5.55	8.82
CNC(=O)[C@@H](NC(=O)[C@H](CC(C)C)[C@H](Sc1ccc(F)cc1Cl)C(=O)NO)C(C)(C)C	4.96	8.96
CNC(=O)[C@@H](NC(=O)C(CC(C)C)C(NS(=O)(=O)c1cnc[nH]1)C(=O)NO)C(C)(C)C (single isomer, unassigned)	–	8.05
CNC(=O)[C@@H](NC(=O)C(CC(C)C)C(C(=O)NO)N(Cc1ccccc1)S(=O)(=O)c1cccc2cccnc12)C(C)(C)C (single isomer, unassigned)	–	7.07
CNC(=O)[C@@H](NC(=O)C(CC(C)C)C(NC(C)=O)C(=O)NO)C(C)(C)C (single isomer, unassigned)	–	7.89
CNC(=O)[C@@H](NC(=O)C(CC(C)C)C(NS(=O)(=O)c1ccc(F)cc1Cl)C(=O)NO)C(C)(C)C (single isomer, unassigned)	–	8.01
CNC(=O)[C@@H](NC(=O)C(CC(C)C)C(NS(=O)(=O)c1ccccc1C#N)C(=O)NO)C(C)(C)C (single isomer, unassigned)	–	7.77
CNC(=O)[C@@H](NC(=O)C(CC(C)C)C(NC(=O)c1ccccc1)C(=O)NO)C(C)(C)C (single isomer, unassigned)	–	8.05
